Measured values as given in PubChem BioAssay (NCI).
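How tested: cells in 96-well plates exposed to compound for 48 hours at five concentrations. GI50 marks 50% less growth. At the TGI there is no net growth.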

Key:
Test in all cases: NCI-60 cell line screen, 48 h
ACHN renal = system: ACHN renal
CCRF-CEM leukemia = system: CCRF-CEM leukemia
DU-145 prostate = system: DU-145 prostate
EKVX NSCLC = system: EKVX NSCLC
HOP-62 NSCLC = system: HOP-62 NSCLC
HOP-92 NSCLC = system: HOP-92 NSCLC
M14 melanoma = system: M14 melanoma
OVCAR-8 ovarian = system: OVCAR-8 ovarian
PC-3 prostate = system: PC-3 prostate
SF-268 CNS = system: SF-268 CNS

Compound | TGI (ACHN renal) [µM] | TGI (CCRF-CEM leukemia) [µM] | TGI (DU-145 prostate) [µM] | TGI (EKVX NSCLC) [µM] | TGI (HOP-62 NSCLC) [µM] | TGI (HOP-92 NSCLC) [µM] | TGI (M14 melanoma) [µM] | TGI (OVCAR-8 ovarian) [µM] | TGI (PC-3 prostate) [µM] | TGI (SF-268 CNS) [µM] | GI50 (DU-145 prostate) [µM]
c1cc2c(cc1C1=NCCN1)c1cc(C3=NCCN3)ccc1n2CC1CCCCC1 | > 100 | 50.2 | 77.1 | 69.2 | 94.8 | 47.9 | > 100 | > 100 | > 100 | 22.2 | –
CC/C(N)=N\NC(=O)OC(C)(C)C | > 100 | > 100 | > 100 | > 100 | > 100 | > 100 | > 100 | > 100 | > 100 | > 100 | –
O=S(=O)(O)c1cc(S(=O)(=O)O)c2c(N=Nc3ccc(N=Nc4ccccc4)cc3)c(O)ccc2c1 | > 100 | > 100 | > 100 | > 100 | > 100 | > 100 | > 100 | > 100 | > 100 | > 100 | –
Cc1ccc(/C=C2\N=C(N3CCCC(CO)C3)NC2=O)cc1 (stereo unspecified) | > 100 | > 100 | > 100 | > 100 | > 100 | > 100 | > 100 | > 100 | > 100 | > 100 | –
O=C(N/N=C\c1ccc([N+](=O)[O-])s1)c1ccncc1 | > 60.8 | > 29.1 | 79.3 | 45.6 | 35.3 | 32.8 | 25.2 | 49.2 | > 76.8 | 55 | –
O=S(=O)(O)c1ccc2c(N=Nc3ccc(Sc4ccc(N=Nc5c(O)ccc6cc(S(=O)(=O)O)ccc56)cc4)cc3)c(O)ccc2c1 | > 100 | > 100 | > 100 | > 100 | > 100 | > 100 | > 100 | > 100 | > 100 | > 100 | –
CCCCCCCCCCCCO[P+](=O)OCCCCCCCCCCCC | > 100 | > 100 | > 100 | > 100 | > 100 | > 100 | > 100 | > 100 | > 100 | > 100 | –
O=C(NCCCCCN1CCC2(CCCCC2)CC1)C(C1CCCCC1)C1CCCCC1 | 8.68 | 11.9 | 9.75 | 9.66 | 4.07 | 12.2 | 3.23 | 7.23 | 8.17 | 12.5 | –
Cc1csc(-n2c(C)nc3cc(Cl)ccc3c2=O)n1 | > 100 | > 100 | > 100 | 81.4 | > 100 | > 100 | > 100 | > 100 | > 100 | > 100 | –
CC1(C)CC(=O)C2=C(C1)OC1(CC2c2ccc(Cl)cc2)CC(c2ccc(Cl)cc2)C2=C(CC(C)(C)CC2=O)O1 (stereo unspecified) | 38.9 | > 76.7 | 46.4 | 34.4 | 34.2 | 25.7 | > 52.1 | 87.5 | > 65.9 | 42 | –
C=C1C(=O)OC2C3OC(C)(CCC(O)C3COC(C)=O)CC(OC(=O)/C(=C/C)COC(C)=O)C12 (stereo unspecified) | 0.452 | 0.269 | 2.04 | 1.61 | 10.1 | 0.392 | 1.01 | 20 | 4.49 | 7.84 | –
CC(C)c1ccc(/C=C2\CSCC3=C2N=C2SCC(=O)N2C3c2ccc(C(C)C)cc2)cc1 (stereo unspecified) | > 100 | > 100 | > 100 | > 100 | > 100 | > 100 | > 100 | > 100 | > 100 | > 100 | –
C=CC[C@H](N=C(SC)SC)C(=O)N1C(=O)N(C)[C@@H](C)[C@H]1c1ccccc1 | > 100 | > 100 | > 100 | 78.4 | > 100 | 68.3 | > 100 | > 100 | > 100 | > 100 | –
COc1ccc(-n2cnc3c(NC(Cc4ccccc4)C(=O)O)ncnc32)cc1 (stereo unspecified) | > 100 | > 100 | > 100 | > 100 | > 100 | > 100 | > 100 | > 100 | > 100 | > 100 | –
CC(C)NC(=O)OCc1c(COC(=O)NC(C)C)c(-c2cc[n+](COC(=O)C3CCCCC3)cc2)n2c1CCC2 | > 100 | > 100 | > 100 | > 100 | > 100 | > 100 | > 100 | > 100 | > 100 | > 100 | –
N#Cc1nc(-c2cccc(-c3nc(C#N)c(N)o3)n2)oc1N | > 100 | 46.9 | > 100 | > 100 | > 100 | > 100 | > 100 | > 100 | > 100 | > 100 | –
CCOc1cc2c(cc1O)C(N)C[C@@H]1[C@@H]2CC[C@]2(C)[C@@H](O)CC[C@@H]12 (stereo partly specified) | > 100 | 71.6 | > 100 | > 100 | > 100 | > 100 | 98.4 | > 100 | > 100 | > 100 | > 100
CCOC(=O)C(C/C=C/CO)N(C)C(=O)OC(C)(C)C (stereo unspecified) | > 100 | > 100 | > 100 | > 100 | > 100 | > 100 | > 100 | > 100 | > 100 | > 100 | –
CCNC(=S)N/N=C(\C)c1cccc(C)n1 | > 100 | > 100 | 73.1 | > 100 | > 100 | 53.1 | 26 | > 100 | > 100 | 17.2 | –
Nc1cc2c3c(cccc3c1)C(=O)N(c1ccc(OCCN3CCCC3)cc1)C2=O | 26.5 | 69 | > 92.8 | 46.1 | 29.7 | 50.6 | 51.2 | 35.8 | 46.5 | > 59.7 | –
CCOC(=O)CCC(NC(=O)c1ccc(Nc2nc3ccccc3nc2C(=O)OCC)cc1)C(=O)OCC (stereo unspecified) | 11.5 | > 100 | > 35.8 | 40.1 | 12.4 | 13.9 | > 100 | 7.97 | > 100 | 43.7 | –
O=c1cc(N2CCCC2)[nH]c(=O)n1-c1ccc(Cl)cc1 | > 100 | > 100 | > 100 | > 100 | > 100 | > 100 | > 100 | > 100 | > 100 | > 100 | –
